Experimental data from PubChem BioAssay (NCI).
Where “and” joins values, the source holds several entries; their conditions need not be identical. Identical values can stand only once.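 Five concentrations, 48 hours, 96-well plates. GI50 is the concentration that inhibits growth by half. TGI: total growth inhibition.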

Tests used:
Assay in all cases: inhibition of tumour cell growth, NCI panel, 48 h
[1] = system: NCI/ADR-RES ovarian
[2] = system: HCC-2998 colon
[3] = system: IGROV1 ovarian
[4] = system: MALME-3M melanoma
[5] = system: BT-549 breast
[6] = system: 786-0 renal
[7] = system: SK-MEL-28 melanoma
[8] = system: UACC-257 melanoma
[9] = system: SK-MEL-5 melanoma
[10] = system: ACHN renal

Row | Structure (SMILES) | GI50 [1] [µM] | TGI [1] | GI50 [2] [µM] | TGI [2] | GI50 [3] [µM] | TGI [3] | GI50 [4] | TGI [4] [µM] | GI50 [5] [µM] | TGI [5] [µM] | GI50 [6] [µM] | TGI [6] | GI50 [7] [µM] | TGI [7] [µM] | GI50 [8] [µM] | TGI [8] [µM] | GI50 [9] | TGI [9] | GI50 [10] | TGI [10]
1 | CC1=NN(c2nc(N)nc(/C=C\c3ccc([N+](=O)[O-])s3)n2)C(C)(C)C1 | > 100 | > 100 µM | > 100 | > 100 µM | > 100 | > 100 µM | > 100 µM | > 100 | > 100 | > 100 | > 100 | > 100 µM | > 100 | > 100 | > 100 | > 100 | 40.9 µM | > 100 µM | > 100 µM | > 100 µM
2 | O=C1C(Cl)=C(Nc2cccc(C(F)(F)F)c2)C(=O)N1Cc1ccc(Cl)cc1 | < 0.0431 | 12.3 µM | 0.835 | 18.8 µM | 2.76 | > 48.5 µM | < 0.0488 µM | 0.741 | 0.154 | 20.3 | < 0.0324 | 13.5 µM | 3.95 | 23.6 | 6.59 | 22.2 | 0.621 µM | 13.5 µM | 0.421 µM | 15.1 µM
3 | O=C(NC(=S)Nc1cc(Cl)ccc1O)c1cccc(Br)c1 | 5.77 | 98 µM | 13.6 | > 100 µM | 9.67 | > 100 µM | 9.33 µM | 55.4 | 62.9 | > 100 | 38 | > 100 µM | 16.5 | > 100 | 15.3 | > 100 | 6.21 µM | > 100 µM | 6.85 µM | > 100 µM
4 | COc1c(B(O)O)cc(F)cc1-c1nc2ccc3[nH]ncc3c2c2c1CCCC2 | 2.03 | 13.7 µM | 2.08 | 5.61 µM | 1.49 | 11.2 µM | 3.54 µM | 6.82 | 0.044 | 1.76 | 0.279 | 5.84 µM | 2.69 | 8.47 | 3.65 | 12.5 | 1.99 µM | 7.34 µM | 1.12 µM | 16.3 µM
5 | CC(O)c1cc(C(=O)N[C@@H](C)Cn2ccc(-c3ccc(C#N)c(Cl)c3)n2)n[nH]1 (stereo partly drawn) | > 100 | > 100 µM | > 100 | > 100 µM | 78.8 | > 100 µM | 42.5 µM | > 100 | 19.7 | 77.7 | > 100 | > 100 µM | 72.8 | > 100 | 27.5 | > 100 | 15.2 µM | 48.3 µM | 82.5 µM | > 100 µM
6 | Cn1cc(C2=C(N3CCOCC3)C(=O)NC2=O)c2ccccc21 | > 25 | > 25 µM | > 25 | > 25 µM | > 25 | > 25 µM | > 25 µM | > 25 | > 25 | > 25 | > 25 | > 25 µM | > 25 | > 25 | > 25 | > 25 | > 25 µM | > 25 µM | > 25 µM | > 25 µM
7 | Cc1coc2c1C(OC(=O)C(C)C)C1(C)C(C)CCC(O)C1C2=O (stereo not drawn) |  | > 100 µM |  | > 100 µM |  | > 100 µM |  | > 100 |  | > 95 |  | > 100 µM |  | > 100 |  | > 100 |  | > 100 µM |  | > 100 µM
8 | C[C@@H]1COCCN1c1cc(C2(O)C[C@H]3CC[C@@H](C2)O3)c2cnn(-c3ccn[nH]3)c2n1 (stereo partly drawn) | 0.154 | 1.1 µM | < 0.0113 | 0.229 µM | 0.0453 | 0.977 µM | 0.0656 µM | 0.462 | 0.049 | 0.784 | 0.0479 | > 100 µM | 0.251 | 2.1 | 0.168 | 1.42 | 0.107 µM | 0.279 µM | 0.0316 µM | 0.353 µM
9 | CC(=C/c1ccccc1)/C=C1/NC(=S)N(/C=C2\C(=O)Oc3ccccc3C2=O)C1=O |  | > 100 µM |  | > 100 µM | 86.7 | > 100 µM | > 100 µM | > 100 | 36.8 | > 100 | 57.6 | > 100 µM |  | > 100 |  | > 100 |  | > 86.9 µM |  | > 100 µM
10 | O=C(c1ccccc1)c1c(C(F)(F)F)n([O-])c2ccc(C(F)(F)F)cc2[n+]1=O | 0.239 | 0.688 µM | 0.622 | 1.28 µM | 0.205 | 0.408 µM | 0.545 µM | 1.2 | 0.125 | 0.269 | 0.167 | 0.307 µM | 0.507 | 0.957 | 0.295 | 0.968 | 0.504 µM | 0.933 µM | 0.102 µM | 0.26 µM
11 | CCN(CC)C(=S)[S][Bi]([S]C(=S)N(CC)CC)[S]C(=S)N(CC)CC | 0.277 | 0.85 µM | 1.6 | 3.02 µM | 0.577 | 1.8 µM | 0.168 µM | 0.317 | 0.203 | 0.384 | 0.163 | 0.299 µM | 0.218 | 0.492 | 0.178 | 0.384 | 0.634 µM | 1.7 µM | 0.226 µM | 0.488 µM
12 | CC(=O)c1nc2ccccc2n1CC(=O)c1cccc(Cl)c1 | 0.231 |  | 1.5 |  | 0.543 | > 100 µM | 0.517 µM | > 100 | 1.12 | > 100 | 0.886 | > 41.4 µM | 0.437 | > 54.3 | 1.69 | > 100 | 0.175 µM | 13.6 µM | 1.08 µM | > 100 µM
13 | CC#Cc1nc(Nc2cc(C)[nH]n2)c2ccccc2n1 | 6.63 | > 100 µM | 2.43 | 5.48 µM | 2.58 | 15.4 µM | 7.24 µM | 25.2 | 4.9 | 23.2 | 5.86 | 29 µM | 7.76 | > 100 | 5.52 | 20.9 | 1.76 µM | 3.61 µM | 2.74 µM | 14.1 µM
14 | CNCCN=c1ccc2c3c1c(O)c1c(O)ccc(=O)c1c3[nH]n2CCNCCO |  | 46.9 µM and 404 µM and 239 µM |  | 1.61 µM and 8.62 µM | 1.25 | 11.2 µM and 12.9 µM | 0.696 µM and 0.511 µM |  |  | 2.43 | 0.05 | 1.79 µM and 0.677 µM | 1.5 | 6.87 |  | 7 | 0.0847 µM and 0.139 µM | 0.962 µM and 2.06 µM | 0.0844 µM and 0.0775 µM | 0.708 µM and 0.259 µM
15 | O=c1oc2c(C(F)(F)F)cccc2cc1-c1csc(Nc2ccc(OCCF)cc2)n1 | 0.0401 | 66.5 µM | 0.0423 | > 100 µM | 0.0757 | > 37 µM | 6.48 µM | > 91.7 | 0.0387 | 6.34 | 0.0611 |  | 1.32 | > 66.4 | 0.653 | > 100 | 0.0658 µM | 0.497 µM | 0.0609 µM | 13.5 µM
16 | COc1ccc(Cn2cc3c(c2-c2cc(OC)c(OC)c(OC)c2)CCc2cnoc2-3)cc1 | 0.242 | > 100 µM | 0.557 | > 100 µM | 0.394 | > 100 µM | 0.239 µM | > 100 | 1.62 | > 100 | 0.575 | > 100 µM | 0.517 | > 100 |  | > 100 | 0.276 µM | 4.99 µM | 0.849 µM | > 100 µM
17 | CCN(Cc1c(Cl)cccc1Cl)c1ccc(CO)c(Cl)c1 | 11.8 | 27.3 µM | 12.3 | 27.6 µM | < 0.0253 |  | 12.6 µM | 27.2 | 16.2 | 30.4 | 13.8 | 28.1 µM | 11.9 | 25.5 | < 0.0392 | 0.211 | 2.86 µM | 19.5 µM | 14.2 µM | 27.3 µM
18 | C/C(=N\NC(=S)N(C)C)c1ccccn1 | 0.000321 | 2.31 µM |  | 15 µM | 0.00402 | 4.66 µM | 0.00639 µM |  |  | 9.59 | 0.0154 | 11.3 µM |  | 20.6 | 0.000438 |  | 0.00143 µM |  | 0.00151 µM | 1.74 µM
19 | O=C(CCc1ccc(O)cc1)N/N=C/c1cc(Br)ccc1O | 2.34 | > 100 µM | 7.12 | 96.9 µM | 6.23 | 93.3 µM | 4.01 µM | 28.3 | 4.19 | 44.8 | 3.73 | 70.7 µM | 5.72 | > 100 | 2.62 | 11.4 | 3.4 µM | 18.1 µM | 3.33 µM | > 100 µM
20 | Cc1ccc(-c2cc(O)c(-c3ccc(C)cc3C)cc2O)c(C)c1 | 4.5 | 32.9 µM | 9.37 | 21.9 µM | 8.25 | 39 µM | 12.9 µM | 28.2 | 7.56 | 26.4 | 7.65 | 21.2 µM | 10.8 | 25.5 | 5.81 | 19.1 | 1.11 µM | 10.2 µM | 8.17 µM | 23 µM
